Measured values: ChEMBL document CHEMBL1201862, “PubChem BioAssay data set” (2004)
Active and inactive are the calls of the source.

What was measured:
[1] = A Cell Based Secondary Assay To Explore Cytotoxicity of Compounds that Sensitize Mycobacterium Tuberculosis to Beta-Lactam Antibiotics.; type: functional
[2] = Luminescence Cell-Based Dose Confirmation HTS to Identify Activators of 5'UTR Stem-Loop Driven Alpha-Synuclein mRNA Translation in H4 Neuroglioblastoma Cells. [Related pubchem assays: 1829 (Project Summary), 1814 (Primary HTS)]; type: functional
[3] = Luminescence Cell-Based Dose Response to Identify Activators of 5'UTR Stem-Loop Driven Prion Protein mRNA Translation in H4-C Neuroglioblastoma Cells. [Related pubchem assays: 1829 (Project Summary), 1814 (Primary HTS)]; type: functional
H4 = test: Luminescence Cell-Based Dose Response HTS to Identify Activators of 5'UTR Stem-Loop Driven Prion Protein mRNA Translation in H4 Neuroglioblastoma Cells. [Related pubchem assays: 1829 (Project Summary), 1814 (Primary HTS)]; type: functional; details: Homo sapiens
[4] = Luminescence Cell-Based Dose Confirmation to Identify Activators of 5'UTR Stem-Loop Driven Alpha-Synuclein mRNA Translation in H4 Neuroglioblastoma Cells. [Related pubchem assays: 1829 (Project Summary), 1814 (Primary HTS)]; type: functional
[5] = Luminescence Cell-Based Dose Response to Identify Activators of Luciferase Translation or Activity in H4-C Neuroglioblastoma Cells. [Related pubchem assays: 1829 (Project Summary), 1814 (Primary HTS)]; type: functional
[6] = molecular target: T1, Sentrin-specific protease 8 (Homo sapiens, UniProt Q96LD8); type: functional;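 also: luminescence read-out of SENP8 inhibition, dose-response confirmation following an ultra-high-throughput screen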
T1 sequence (Q96LD8 whole entry): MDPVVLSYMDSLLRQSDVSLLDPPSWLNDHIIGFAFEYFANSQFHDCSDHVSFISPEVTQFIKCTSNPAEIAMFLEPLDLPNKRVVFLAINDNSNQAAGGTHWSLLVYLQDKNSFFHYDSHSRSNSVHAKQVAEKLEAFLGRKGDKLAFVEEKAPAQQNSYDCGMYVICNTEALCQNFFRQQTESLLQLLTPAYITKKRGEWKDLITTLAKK

[7] = molecular target: T2, Sentrin-specific protease 6 (Homo sapiens, UniProt Q9GZR1); type: functional;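 also: Luminescence-based dose-response confirmatory assay of SENP6 inhibition, following up an ultra-high-throughput screen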
T2 sequence (Q9GZR1 whole entry): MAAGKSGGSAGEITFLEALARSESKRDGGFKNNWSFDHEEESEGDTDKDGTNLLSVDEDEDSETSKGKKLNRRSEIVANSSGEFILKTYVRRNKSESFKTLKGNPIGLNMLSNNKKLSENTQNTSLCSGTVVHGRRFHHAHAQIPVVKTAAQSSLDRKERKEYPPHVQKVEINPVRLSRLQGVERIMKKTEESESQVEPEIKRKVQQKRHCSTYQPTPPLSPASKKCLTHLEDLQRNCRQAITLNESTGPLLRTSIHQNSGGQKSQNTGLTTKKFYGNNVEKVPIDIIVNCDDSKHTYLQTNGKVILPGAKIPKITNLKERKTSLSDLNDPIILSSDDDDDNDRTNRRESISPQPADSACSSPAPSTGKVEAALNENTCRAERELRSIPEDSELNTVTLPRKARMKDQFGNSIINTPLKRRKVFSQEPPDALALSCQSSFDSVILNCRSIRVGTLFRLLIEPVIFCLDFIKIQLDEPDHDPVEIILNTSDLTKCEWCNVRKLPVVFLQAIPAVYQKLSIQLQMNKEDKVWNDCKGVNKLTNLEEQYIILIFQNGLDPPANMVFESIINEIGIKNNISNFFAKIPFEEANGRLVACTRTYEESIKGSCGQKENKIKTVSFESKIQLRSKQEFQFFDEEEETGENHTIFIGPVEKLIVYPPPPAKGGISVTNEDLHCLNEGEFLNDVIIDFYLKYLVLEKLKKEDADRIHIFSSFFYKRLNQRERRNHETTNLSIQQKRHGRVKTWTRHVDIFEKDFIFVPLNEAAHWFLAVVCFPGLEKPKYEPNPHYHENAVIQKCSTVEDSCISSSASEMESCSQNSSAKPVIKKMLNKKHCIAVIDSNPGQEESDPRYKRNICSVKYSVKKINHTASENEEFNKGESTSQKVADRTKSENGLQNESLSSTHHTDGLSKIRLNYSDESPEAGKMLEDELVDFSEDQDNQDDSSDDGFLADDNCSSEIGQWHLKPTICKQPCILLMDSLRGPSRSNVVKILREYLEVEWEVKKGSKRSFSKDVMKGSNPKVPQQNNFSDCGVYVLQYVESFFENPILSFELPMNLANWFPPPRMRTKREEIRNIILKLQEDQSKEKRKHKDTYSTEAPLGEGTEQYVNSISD

[8] = molecular target: T3, Sentrin-specific protease 7 (Homo sapiens, UniProt Q9BQF6); type: functional;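 also: Luminescence-based dose-response confirmation of ultra-high-throughput screening hits, measuring inhibition of SENP7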
T3 sequence (Q9BQF6 whole entry): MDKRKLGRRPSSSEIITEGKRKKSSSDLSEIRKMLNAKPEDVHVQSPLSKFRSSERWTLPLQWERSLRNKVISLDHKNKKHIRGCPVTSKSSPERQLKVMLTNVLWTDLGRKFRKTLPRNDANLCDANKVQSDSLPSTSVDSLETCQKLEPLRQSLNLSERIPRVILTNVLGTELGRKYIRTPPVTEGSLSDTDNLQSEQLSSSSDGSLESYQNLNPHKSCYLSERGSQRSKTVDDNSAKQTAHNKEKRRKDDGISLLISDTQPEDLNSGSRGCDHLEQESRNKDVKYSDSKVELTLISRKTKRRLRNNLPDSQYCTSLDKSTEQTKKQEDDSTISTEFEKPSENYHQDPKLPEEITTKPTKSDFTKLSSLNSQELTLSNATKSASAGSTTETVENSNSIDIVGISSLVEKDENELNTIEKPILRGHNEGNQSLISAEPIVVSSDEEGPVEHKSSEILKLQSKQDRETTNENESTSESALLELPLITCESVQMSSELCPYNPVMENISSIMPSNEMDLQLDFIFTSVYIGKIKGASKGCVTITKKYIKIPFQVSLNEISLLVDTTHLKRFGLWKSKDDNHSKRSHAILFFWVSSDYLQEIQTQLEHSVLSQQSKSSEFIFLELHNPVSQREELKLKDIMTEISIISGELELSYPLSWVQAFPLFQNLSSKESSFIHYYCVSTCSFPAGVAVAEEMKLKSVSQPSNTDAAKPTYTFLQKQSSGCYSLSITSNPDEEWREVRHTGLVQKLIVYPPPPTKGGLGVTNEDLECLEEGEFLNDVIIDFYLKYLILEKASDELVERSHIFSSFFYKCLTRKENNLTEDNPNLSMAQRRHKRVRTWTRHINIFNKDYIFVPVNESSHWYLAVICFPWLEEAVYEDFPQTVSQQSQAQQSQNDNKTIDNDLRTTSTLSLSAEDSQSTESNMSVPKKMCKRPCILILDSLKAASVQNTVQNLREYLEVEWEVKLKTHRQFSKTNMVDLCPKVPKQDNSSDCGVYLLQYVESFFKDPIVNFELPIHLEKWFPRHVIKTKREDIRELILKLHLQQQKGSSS

Caspase-3 = molecular target: T4, Caspase-3 (Homo sapiens, UniProt P42574); type: functional;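 also: Dose-response selectivity test against caspase-3 for candidate inhibitors of sentrin-specific proteases (SENPs)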
T4 sequence (P42574 whole entry): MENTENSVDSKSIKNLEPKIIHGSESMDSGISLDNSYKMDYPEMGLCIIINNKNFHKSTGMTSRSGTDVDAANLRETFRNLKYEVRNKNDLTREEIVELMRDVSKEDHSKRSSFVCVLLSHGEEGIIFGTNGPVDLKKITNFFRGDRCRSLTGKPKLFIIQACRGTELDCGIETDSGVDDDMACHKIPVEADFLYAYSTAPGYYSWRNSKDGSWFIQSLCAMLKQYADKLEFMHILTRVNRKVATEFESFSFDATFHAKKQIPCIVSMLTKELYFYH

[9] = Jurkat T cell cytotoxicity, dose response, cytotoxicity control for P. falciparum gametocyte viability project, luminescence (AID 1117277); type: functional, cell-based;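 also: potency reflects loss of cellular ATP meaning fewer viable cells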
[10] = P. falciparum late gametocyte killing, dose response, luminescence (AID 1117278); type: functional, cell-based;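 also: gametocytes exposed to compound for 24 hours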
[11] = molecular target: T5, Calpain-2 catalytic subunit (Sus scrofa, UniProt P43367); test: pig calpain II inhibitor potency, dose response, biochemical, fluorogenic peptide substrate (AID 1420); type: functional
T5 sequence (P43367 whole entry): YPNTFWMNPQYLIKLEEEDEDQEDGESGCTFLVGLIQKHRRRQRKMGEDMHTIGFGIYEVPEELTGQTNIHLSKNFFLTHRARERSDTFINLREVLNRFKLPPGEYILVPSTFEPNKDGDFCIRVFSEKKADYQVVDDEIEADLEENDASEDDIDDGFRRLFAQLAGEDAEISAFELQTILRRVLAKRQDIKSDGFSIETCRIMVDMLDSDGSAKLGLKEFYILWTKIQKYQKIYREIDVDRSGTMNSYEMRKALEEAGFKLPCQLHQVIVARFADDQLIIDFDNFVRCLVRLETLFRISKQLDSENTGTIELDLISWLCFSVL

[12] = HEp-2 cell cytotoxicity, dose response, cytotoxicity control for RSV inhibitor project, HTS (AID 2410); type: functional; details: human respiratory syncytial virus
cells [13] = test: cells
[14] = THP-1 cell cytotoxicity, dose response, cytotoxicity control for Vif-APOBEC3G degradation inhibitor project, THP-1 cells (AID 1117359); type: functional; details: Human immunodeficiency virus 1, THP-1
[15] = inhibitors of intracellular T. cruzi replication, confirmation, NIH3T3 host cells, beta-gal luminescence (AID 2044); type: functional, cell-based;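 also: intracellular parasites grown in NIH/3T3 mouse fibroblasts as host cells; luminescent beta-galactosidase reporter signal from transgenic T. cruzi replicating inside host cells; inhibitors lower the luminescence signal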
[16] = cytotoxicity toward NIH3T3 fibroblasts, dose response, counter-screen, cell-based, ATP luminescence, mouse fibroblasts (AID 2010); type: functional;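 also: cells exposed to compound for about 90 hours before reading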
Prothrombin = Prothrombin (Homo sapiens, UniProt P00734); test: Thrombin 1536 HTS Dose Response Confirmation. [Related pubchem assays: 1046 (Thrombin 1536 HTS; hits were confirmed in this assay)]; type: functional
Nonstructural protein 1 = Nonstructural protein 1 (Influenza A virus, UniProt Q194T2); type: functional, Influenza A virus (A/California/07/2009(H1N1))
[17] = Luminescence Cell-Based Dose Response HTS to Identify Activators of Luciferase Translation or Activity in H4 […] Cells. [Related pubchem assays: 1829 (Project Summary), 1814 (Primary HTS)]; type: functional
cells [18] = type: functional
[19] = P. falciparum Dd2 growth inhibitors, dose response, SYBR Green, dry powder samples, set 9 (AID 1159568); type: functional, cell-based

Sequence of Nonstructural protein 1 (Q194T2 whole entry): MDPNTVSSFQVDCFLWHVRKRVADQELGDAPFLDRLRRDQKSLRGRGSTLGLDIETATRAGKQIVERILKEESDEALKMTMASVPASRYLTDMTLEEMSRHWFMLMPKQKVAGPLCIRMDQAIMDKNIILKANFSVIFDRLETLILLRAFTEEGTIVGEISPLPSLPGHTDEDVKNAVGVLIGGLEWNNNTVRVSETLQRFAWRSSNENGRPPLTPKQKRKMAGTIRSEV

## Cc1nc(SCC(=O)NCc2ccco2)c2c3c(sc2n1)CCCC3
[1]
  CC50: 19.8 µM (active)

## Cc1ccnc(SCc2nc3ccccc3s2)n1
[2]
  EC50: < 0.1 µM (active)
[3]
  EC50: 3.21 µM (active)
H4
  EC50: 6.54 µM (active)
[4]
  EC50: > 12 µM (inconclusive)
[5]
  EC50: > 12 µM (not active)

## Cc1cccc(-c2cc3nc4c(c(N5CCOCC5)n3n2)CCCC4)c1
[3]
  EC50: 0.734 µM (active)
[6]
  IC50: 19.4 µM (active)
[7]
  IC50: 18.5 µM (active)
H4
  EC50: < 0.1 µM (active)
[8]
  IC50: 12.9 µM (active)
Caspase-3
  IC50: 12.4 µM (active)
[4]
  EC50: 0.228 µM (active)
[5]
  EC50: 0.514 µM (active)

## CC1CCCCC12NC(=O)N(CC(=O)NCCc1ccccn1)C2=O (centres undefined)
[9]
  IC50: > 83.3 µM (inactive)
[10]
  IC50: > 109 µM (inactive)

## CCCCN(C)Cc1cc(=O)oc2cc3c(cc12)CCCC3
[1]
  CC50: > 40 µM (active)

## Cc1ccc(NC(=O)c2cc(N3C(=O)C4CCCCC4C3=O)ccc2N2CCOCC2)cc1 (centres undefined)
[11]
  IC50: 14.9 µM (not active)

## COc1ccccc1NC(=O)CCn1c(=O)c2cccn2c2ccccc21
[12]
  CC50: > 50 µM (active)
Cells [13]
  IC50: 43.8 µM (active)

## Cc1sc2c(c1C)c(=O)n(-c1ccc(F)cc1)c(=O)n2CC(=O)NCc1ccco1
[11]
  IC50: 25.1 µM (not active)

## CCn1c(=O)c2cc(C(=O)N(C)c3ccccc3F)sc2c2ccccc21
[14]
  CC50: > 40 µM (active)
[15]
  EC50: 1.04 µM (active)
[1]
  CC50: > 40 µM (active)
[16]
  EC50: > 30 µM (not active)

## Cc1ccc2cc(CN(Cc3ccco3)C(=O)c3ccco3)c3nnnn3c2c1
[12]
  CC50: > 50 µM (active)
Cells [13]
  IC50: 44.3 µM (active)

## CC1(C)CC(=O)C(Sc2nnc(-c3ccc(O)cc3)n2CC2CCCO2)C(=O)C1 (centres undefined)
[9]
  IC50: > 83.3 µM (inactive)
[10]
  IC50: > 109 µM (inactive)

## CCC(=O)n1nc(-c2ccccc2)nc1SCC(=O)Nc1ccc(C)cc1
Prothrombin
  IC50: 1.22 µM (active)

## O=C(Nc1nc(-c2cccs2)cs1)c1ccc(Cl)cc1
Prothrombin
  IC50: 4.5 µM (active)

## Cc1ccc(C)c(N=Nc2nc3ccccc3n2C)c1
Nonstructural protein 1
  IC50: 14.3 µM (active)
[17]
  EC50: 0.139 µM (inconclusive)
[3]
  EC50: 0.275 µM (active)
H4
  EC50: < 0.1 µM (active)
[4]
  EC50: 0.393 µM (active)
[5]
  EC50: 0.281 µM (active)

## Cc1ccc(Cn2c(SCC(=O)N3CC(=O)Nc4ccccc43)nc3ccccc3c2=O)cc1
[12]
  CC50: 40.2 µM (active)
Cells [13]
  IC50: 42 µM (active)

## COc1ccc(-c2cc(C(=O)NCc3cn(C)nc3C)c3ccccc3n2)cc1OC
[11]
  IC50: > 50 µM (not active)

## COc1ccccc1-c1ccc(NC2CCCCC2)nn1
[2]
  EC50: 0.6 µM (active)
[17]
  EC50: 52.7 µM (active)
[3]
  EC50: 1.68 µM (active)
H4
  EC50: < 0.1 µM (active)
[4]
  EC50: 0.442 µM (active)
[5]
  EC50: > 12 µM (not active)

## O=C(Nc1ncc(Cc2ccccc2)s1)C1=NCCN1
[9]
  IC50: > 83.3 µM (inactive)
Cells [18]
  IC50: 14 µM (active)
[10]
  IC50: > 109 µM (inactive)

## O=C(COC(=O)c1cccnc1)Nc1ccc(F)cc1
[9]
  IC50: > 83.3 µM (inactive)
[10]
  IC50: > 109 µM (inactive)

## C[C@@H]1CCCCO[C@@H](CN(C)S(=O)(=O)c2ccccc2)[C@H](C)CN([C@H](C)CO)C(=O)c2cc(NC(=O)Nc3ccc4c(c3)OCO4)ccc2O1
[19]
  AC50: 1.17 µM (active)

## N#C[C@H]1[C@@H](c2ccc(C3=CCCCC3)cc2)[C@@H](CO)N1C(=O)Nc1ccccc1F
[19]
  AC50: 15.8 µM (active)

## COc1cccc(NC(=O)c2ccc(NCCCN3CC(C)CC(C)C3)c([N+](=O)[O-])c2)c1 (centres undefined)
[11]
  IC50: 3.92 µM (not active)
